Data published in US20020061839A1, “Serine peptidase modulators” (priority 1998, published 2002).
Structures can show the parent of a compound that is named as a salt. Where two headings read alike, the source gives them in different places.

Key:
Prolyl oligopeptidase = target: T1, Prolyl oligopeptidase (Homo sapiens, UniProt P48147); assay: Inhibition of prolyl oligopeptidase (PO), Z-Gly-Pro-AMC substrate; assay type: biochemical; settings: PO from human platelets, 20 min at 37° C.
T1 construct: Prolyl oligopeptidase was purified from human platelets; from tissue; host or cells: human platelets
T1 sequence (P48147 1-710): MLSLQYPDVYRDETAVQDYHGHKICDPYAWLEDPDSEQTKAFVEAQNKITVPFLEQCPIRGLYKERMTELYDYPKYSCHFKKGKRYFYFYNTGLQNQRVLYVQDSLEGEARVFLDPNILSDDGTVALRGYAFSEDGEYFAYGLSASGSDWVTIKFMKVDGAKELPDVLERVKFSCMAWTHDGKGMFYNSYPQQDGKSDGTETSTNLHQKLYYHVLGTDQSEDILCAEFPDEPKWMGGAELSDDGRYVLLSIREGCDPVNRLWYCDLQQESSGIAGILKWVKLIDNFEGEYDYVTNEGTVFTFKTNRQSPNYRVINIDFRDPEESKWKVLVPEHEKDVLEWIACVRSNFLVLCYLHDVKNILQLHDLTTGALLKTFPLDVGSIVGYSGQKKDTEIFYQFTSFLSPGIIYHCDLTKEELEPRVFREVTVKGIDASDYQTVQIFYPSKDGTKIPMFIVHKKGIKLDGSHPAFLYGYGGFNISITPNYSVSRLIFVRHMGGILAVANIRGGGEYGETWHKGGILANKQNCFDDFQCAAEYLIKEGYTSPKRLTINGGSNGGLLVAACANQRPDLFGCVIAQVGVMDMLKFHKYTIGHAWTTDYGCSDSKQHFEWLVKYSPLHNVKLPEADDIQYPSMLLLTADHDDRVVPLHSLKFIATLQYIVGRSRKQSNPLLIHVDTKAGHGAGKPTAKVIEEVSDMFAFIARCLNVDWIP
Experimental: Prolyl oligopeptidase was purified from human platelets and the enzyme activity was measured using Z—Gly—Pro—AMC (4.4 mM) as the substrate in a K-phosphate buffer 100 mM, pH 7.5 containing 1 EM EDTA, 1 mM dithiothreitol and 1 mM NaN3. The incubation was carried out during 20 min at 37° C. The reaction was stopped by the addition of 5 volumes 1.5 M acetic acid. Fluorescence was measured at 370 and 440 nm as excitation and emission wavelengths respectively. The inhibitors were added at concentrations varying between 1 μM and 1 mM.

in vitro = settings: human, plasma
DPP IV = target: T2, DPP IV (Homo sapiens, UniProt P27487); assay: biochemical; assay type: biochemical; settings: for kinact/KI: 0.25 h, pH 8.3, read-out: kcalc (second order rate constant of inactivation)
T2 construct: DPP IV was purified from human seminal plasma as described previously; from tissue; host or cells: human seminal plasma
T2 sequence (P27487 whole entry): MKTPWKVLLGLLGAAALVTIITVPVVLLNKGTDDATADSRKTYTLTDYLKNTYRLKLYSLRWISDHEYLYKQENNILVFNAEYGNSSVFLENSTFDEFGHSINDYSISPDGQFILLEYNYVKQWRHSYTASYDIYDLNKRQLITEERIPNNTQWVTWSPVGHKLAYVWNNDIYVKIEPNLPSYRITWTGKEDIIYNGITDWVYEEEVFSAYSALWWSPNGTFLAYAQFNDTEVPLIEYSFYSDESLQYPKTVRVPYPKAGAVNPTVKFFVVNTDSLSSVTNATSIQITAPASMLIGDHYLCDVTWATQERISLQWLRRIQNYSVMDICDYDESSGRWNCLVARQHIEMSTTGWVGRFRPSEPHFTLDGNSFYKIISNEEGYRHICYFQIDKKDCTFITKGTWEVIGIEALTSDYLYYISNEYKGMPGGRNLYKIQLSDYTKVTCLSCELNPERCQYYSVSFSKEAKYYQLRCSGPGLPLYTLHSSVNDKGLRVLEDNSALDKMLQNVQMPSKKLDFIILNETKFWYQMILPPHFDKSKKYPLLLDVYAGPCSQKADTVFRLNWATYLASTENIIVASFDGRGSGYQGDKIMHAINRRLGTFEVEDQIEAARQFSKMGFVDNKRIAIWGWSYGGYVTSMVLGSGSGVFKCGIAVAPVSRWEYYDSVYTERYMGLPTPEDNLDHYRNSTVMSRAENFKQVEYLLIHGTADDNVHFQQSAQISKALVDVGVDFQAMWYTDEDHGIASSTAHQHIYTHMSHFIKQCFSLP
Experimental: Enzymatic activity was measured at 37° C. in a Spectramax 340 (Molecular Devices) microtiterplate reader using Gly—Pro-p-nitroanilide (Sigma) as a chromogenic substrate. […] The reaction mixture contained 2 mM substrate, approximately 1 mU of DPP IV, 40 EM TRIS-HCl buffer, pH 8.3, and a suitable amount of inhibitor (ranging between 0 an 10 mM) in a total volume of 0.2 ml. Activity measurements were routinely performed in duplicate.
Stock solutions were diluted with 50 mM TRIS-HCl buffer, pH 8.3, as required, immediately before the experiment. […] For a simple pseudo-first order inactivation process, the activity after incubation with inhibitor (vi) varies with the inhibitor concentration (i) as described in the following equation: vi=vo * e-k.i.t, where vo is the activity in absence of inhibitor, k is the second order rate constant of inactivation and t is the time.

[1] = 15 min pre-incubation with DPP IV at 37° C., average ± standard deviation

SMILES	IC50 (Prolyl oligopeptidase) [µM]	half-life at 1 mM (in vitro) [h]	other results
CC(=O)Nc1cccc(OP(=O)(Oc2cccc(NC(C)=O)c2)C2CCCN2C(=O)[C@@H]2CCCN2C(=O)OCc2ccccc2)c1 (mixture of isomers) [10d, Di(3-acetamidophenyl) 1-(benzyloxycarbonyl-(S)-prolyl)-pyrrolidine-2(R,S)-phosphonate]	10		
CC(=O)Nc1ccc(OP(=O)(Oc2ccc(NC(C)=O)cc2)C2CCCN2C(=O)[C@@H]2CCCN2C(=O)OCc2ccccc2)cc1 (mixture of isomers) [10e, Di(4-acetamidophenyl) 1-(benzyloxycarbonyl-(S)-prolyl)-pyrrolidine-2(R,S)-phosphonate]	21		
CS(=O)(=O)Nc1ccc(OP(=O)(Oc2ccc(NS(C)(=O)=O)cc2)C2CCCN2C(=O)[C@@H]2CCCN2C(=O)OCc2ccccc2)cc1 (mixture of isomers) [10f, Di(4-methylsulfonylaminophenyl) 1-(benzyloxycarbonyl-(S)-prolyl)pyrrolidine-2(R,S)-phosphonate]	10		
O=C(CNC(=O)c1ccccc1)Nc1ccc(OP(=O)(Oc2ccc(NC(=O)CNC(=O)c3ccccc3)cc2)C2CCCN2C(=O)[C@@H]2CCCN2C(=O)OCc2ccccc2)cc1 (mixture of isomers) [10h, Di[4-(N-benzoylglycylamino)phenyl]-1-(benzyloxycarbonyl-(S)-prolyl)pyrrolidine-2(R,S)-phosphonate]	12		
O=C(CNC(=O)OCc1ccccc1)Nc1ccc(OP(=O)(Oc2ccc(NC(=O)CNC(=O)OCc3ccccc3)cc2)C2CCCN2C(=O)[C@@H]2CCCN2C(=O)OCc2ccccc2)cc1 (mixture of isomers) [10i, Di[4-(N-benzyloxycarbonylglycylamino)phenyl]-1-(benzyloxycarbonyl-(S)-prolyl)pyrrolidine-2(R,S)-phosphonate]	15		
COC(=O)[C@H](Cc1ccc(OP(=O)(Oc2ccc(C[C@H](NC(C)=O)C(=O)OC)cc2)C2CCCN2C(=O)[C@@H]2CCCN2C(=O)OCc2ccccc2)cc1)NC(C)=O (mixture of isomers) [10l, Di{4-[-(S)-(2-methoxycarbonyl-2-acetamido)ethyl]phenyl}1-(benzyloxycarbonyl-(S)-prolyl)pyrrolidine-2(R,S)-phosphonate]	20		
CCOC(=O)CNC(=O)c1ccc(OP(=O)(Oc2ccc(C(=O)NCC(=O)OCC)cc2)C2CCCN2C(=O)[C@@H]2CCCN2C(=O)OCc2ccccc2)cc1 (mixture of isomers) [10n, Di{4-[(ethoxycarbonyl)methylaminocarbonyl]phenyl}1-(benzyloxycarbonyl-(S)-prolyl)-pyrrolidine-2(R,S)-phosphonate]	5		
COC(=O)CCNC(=O)c1ccc(OP(=O)(Oc2ccc(C(=O)NCCC(=O)OC)cc2)C2CCCN2C(=O)[C@@H]2CCCN2C(=O)OCc2ccccc2)cc1 (mixture of isomers) [10o, Di{4-[2-(methoxycarbonyl)ethylaminocarbonyl]phenyl}1-(benzyloxycarbonyl-(S)-prolyl)-pyrrolidine-2(R,S)-phosphonate]	2.8		
CCCNC(=O)c1ccc(OP(=O)(Oc2ccc(C(=O)NCCC)cc2)C2CCCN2C(=O)[C@@H]2CCCN2C(=O)OCc2ccccc2)cc1 (mixture of isomers) [10p, Di[4-(n-propylaminocarbonyl)phenyl]1-(benzyloxycarbonyl-(S)-prolyl)-pyrrolidine-2(R,S)-phosphonate]	3.2		
CC(=O)Nc1cccc(OP(=O)(Oc2cccc(NC(C)=O)c2)C2CCCN2C(=O)[C@@H]2CCCN2)c1.Cl (mixture of isomers) [11d, Di(3-acetamidophenyl) 1-((S)-prolyl)pyrrolidine-2(R,S)-phosphonate hydrochloride]		3.67 ± 0.5	
CS(=O)(=O)Nc1ccc(OP(=O)(Oc2ccc(NS(C)(=O)=O)cc2)C2CCCN2C(=O)[C@@H]2CCCN2)cc1.Cl (mixture of isomers) [11f, Di(4-methylsulfonylaminophenyl) 1-((S)-prolyl)-pyrrolidine-2(R,S)-phosphonate hydrochloride]		2.5 ± 0.5	potency compared to the diastereoisomeric mixture 5 (DPP IV; DPP IV inhibition): about 100 times
NC(=O)Nc1cccc(OP(=O)(Oc2cccc(NC(N)=O)c2)C2CCCN2C(=O)[C@@H]2CCCN2)c1 (mixture of isomers) [11g, Di(3-ureylphenyl) 1-((S)-prolyl)pyrrolidine-2(R,S)-phosphonate hydrochloride]		3.5 ± 1.33	kinact/KI (DPP IV): 330 M⁻¹ s⁻¹; IC50 (DPP IV; [1]): 2.3 ± 0.3 µM
Cl.O=C(CNC(=O)c1ccccc1)Nc1ccc(OP(=O)(Oc2ccc(NC(=O)CNC(=O)c3ccccc3)cc2)C2CCCN2C(=O)[C@@H]2CCCN2)cc1 (mixture of isomers) [11h, Di[4-(N-benzoylglycylamino)phenyl]-1-((S)-prolyl)pyrrolidine-2(R,S)-phosphonate hydrochloride]		1.55 ± 0.05	
Cl.Cl.Cl.NCC(=O)Nc1ccc(OP(=O)(Oc2ccc(NC(=O)CN)cc2)C2CCCN2C(=O)[C@@H]2CCCN2)cc1 (mixture of isomers) [11i, Di[4-(N-glycylamino)phenyl]-1-((S)-prolyl)-pyrrolidine-2(R,S)-phosphonate trihydrochloride]		0.467 ± 0.05	
C[C@H](N)C(=O)Nc1ccc(OP(=O)(Oc2ccc(NC(=O)[C@H](C)N)cc2)C2CCCN2C(=O)[C@@H]2CCCN2)cc1 (mixture of isomers) [11j, Di(4-(S)-alanylaminophenyl)-1-((S)-prolyl)pyrrolidine-2(R,S)-phosphonate trihydrochloride]		0.133 ± 0.0167	kinact/KI (DPP IV): 1300 M⁻¹ s⁻¹; IC50 (DPP IV; [1]): 0.6 ± 0.2 µM
O=C1CC[C@@H](C(=O)Nc2ccc(OP(=O)(Oc3ccc(NC(=O)[C@@H]4CCC(=O)N4)cc3)C3CCCN3C(=O)[C@@H]3CCCN3)cc2)N1 (mixture of isomers) [11k, Di(4-(S)-pyroglutamylaminophenyl)-1-((S)-prolyl)pyrrolidine-2(R,S)-phosphonate hydrochloride]		2.83 ± 0.5	kinact/KI (DPP IV): 150 M⁻¹ s⁻¹; IC50 (DPP IV; [1]): 5 ± 0.8 µM
COC(=O)CCNC(=O)c1ccc(OP(=O)(Oc2ccc(C(=O)NCCC(=O)OC)cc2)C2CCCN2C(=O)[C@@H]2CCCN2)cc1.Cl (mixture of isomers) [11o, Di{4-[2-(methoxycarbonyl)ethylaminocarbonyl]phenyl}1-((S)-prolyl)-pyrrolidine-2(R,S)-phosphonate hydrochloride]		0.433 ± 0.0167	
CCCNC(=O)c1ccc(OP(=O)(Oc2ccc(C(=O)NCCC)cc2)C2CCCN2C(=O)[C@@H]2CCCN2)cc1.Cl (mixture of isomers) [11p, Di[4-(n-propylaminocarbonyl)phenyl]1-((S)-prolyl)-pyrrolidine-2(R,S)-phosphonate hydrochloride]		0.2 ± 0.0167	
COP(=O)(Oc1ccccc1-c1ccccc1O)C1CCCN1C(=O)[C@@H]1CCCN1 (mixture of isomers) [compound 18, 2-(2′-Hydroxyphenyl)phenyl methyl 1-(S)-prolyl)-pyrrolidine-2(R,S)-phosphonate hydrochloride]		2.33 ± 1.33	IC50 (DPP IV): 47 µM; kinact/KI (DPP IV): 16 M⁻¹ s⁻¹
COC(=O)C(Cc1ccc(OP(=O)(Oc2ccc(CC(NC(C)=O)C(=O)OC)cc2)C2CCCN2C(=O)C2CCCN2)cc1)NC(C)=O [11l, Di{4-[-(S)-(2-methoxycarbonyl-2-acetamido)ethyl]phenyl}1-((S)-prolyl)pyrrolidine-2-phosphonate hydrochloride]		3.17 ± 2.5	IC50 (DPP IV): 1.4 µM; kinact/KI (DPP IV): 550 M⁻¹ s⁻¹
